Laboratory results from patent US20200345746A1, “Oxazine Derivative for Use in the Prevention of Alzheimer's Disease in at Risk Patents” (Novartis AG, priority 2016, published 2020).

Tests used:
[1] = test system: Aβ40; experiment: Triton TX-100 soluble Aβ40 in APP23 mouse brain; type: in vivo; conditions: APP23 mice
Experimental: Frozen mouse forebrains were weighed and homogenized in 9 volumes (w/v) of ice-cold TBS-Complete (20 mM Tris-HCl pH 7.4, 137 mM NaCl, 1× Complete [Protease Inhibitor Cocktail Tablets: 1 836 145, Roche Diagnostics GmbH, Penzberg, Germany]) by sonication (90% duty cycle, output control 5, 40-55 pulses, [Sonifier 450, Branson]). After homogenization several 50 μl aliquots were prepared for analysis and were stored at −80° C.
Human Aβ40 and 42 in mice was determined with the Meso Scale Discovery (MSD) 96-well MULTI-ARRAY human/rodent (6E10) Aβ40/42 Assay (Meso Scale Discovery, Rockville, Md., USA). The assay was performed according to the manufacturer's instructions except for the calibration curve and the sample preparations. TritonX-100 (TX-100) soluble Aβ40 and 42 was extracted from forebrain with 1% TX-100 using a 50 μl aliquot of each 1:10 forebrain homogenate, mixed with 50 μl 2% TX-100 in TBS complete (20 mM Tris-HCl pH 7.4, 137 mM NaCl, 1× Complete [Protease Inhibitor Cocktail Tablets: 1 836 145, Roche Diagnostics GmbH, Penzberg Germany]) to reach a final concentration of 1% TX-100 and a 1:20 forebrain dilution. The samples were incubated for 15 min on ice and vortexed every 5 min. The samples were ultra-centrifuged (100000×g, 4° C., 15 min) and 50 μl of the clear supernatants were transferred to fresh tubes. The supernatants were further diluted 1:5 in 3% Blocker A solution (from kit) to a final forebrain dilution of 1:100 and applied to the plate.
The calibration curve was prepared in a corresponding dilution of 1% Blocker A solution spiked with synthetic Aβ1-40 peptide (1.56-100 pg/ml) except for non-transgenic mouse brain samples: In this case, the calibration curve was prepared in a correspondingly diluted APP knockout mouse forebrain spiked with synthetic Aβ1-40 peptide (1.56-100 pg/ml). For all samples and standards 25 μl were applied per well. For each determination duplicate wells were done. The mean values from the duplicate wells were used for calculations. The relative units for samples and standards were imported into SOFTmax PRO 4.0 for calculation of standard curves and quantification of samples.
Brain homogenates were extracted with 1% Triton X-100 in buffer and the resulting supernatant was considered to represent soluble forms of APP metabolites. In addition to Aβ40 and 42, we determined the N-terminal APP fragments sAPPα (direct cleavage product of α-secretase) and sAPPβ (Swe) (direct product of BACE1 cleavage). […] Since no change in the APP expression and Aβ generation is known to happen during this age, it is assumed that the increased values in the vehicle group (18-20 mo old) arise from “leakage” out of the Aβ deposits (which increase several fold, see below).

[2] = test system: Aβ40; experiment: First-in-human study: Aβ40 in CSF; type: in vivo; conditions: for Aβ40 % change from baseline, Mean (SD) / Aβ40 % change from baseline, Median: CSF, 2 weeks; for lowering of CSF Aβ40 concentrations, up to: healthy elderly subjects
Experimental: The purpose of this study was to determine the single and multiple maximum tolerated dose of Compound 1 and to assess the pharmacokinetic/pharmacodynamic (PK/PD) relationship using Aβ in CSF as primary PD biomarker.
Pharmacodynamic assessments using Aβ concentrations in CSF as primary biomarker of drug action were also been applied in healthy elderly subjects. Dose-dependent lowering of Aβ40 concentrations was determined up to approximately 80% and 90% after single and multiple dosing, respectively (Tables 14 and 15, FIG. 9).
In the completed first-in-human and 3-month dose-ranging safety and tolerability clinical studies described in Examples 5 and 6, Aβ concentrations in CSF were obtained by means of lumbar punctures before the first dose (baseline) and respectively after 2 weeks and 3 months of multiple dosing. ApoE4 genotype also was obtained in the subjects who consented. The percent change from baseline in Aβ40 and Aβ42 concentrations was calculated in subjects who took the study treatment and had no major protocol deviation with potential impact on the evaluation of the pharmacodynamic effect. Tables 18 to 21 below provide summary statistics of the percent change from baseline by treatment group and ApoE genotype (E4 heterozygotes versus E4 non-carriers). Only one subject with CSF data was E4 homozygote (from the 3-month dose-ranging safety and tolerability study).

[3] = multiple-dose 10 mg, Day 15 (24 h post last dose)
[4] = multiple-dose 30 mg, Day 15 (24 h post last dose)
[5] = multiple-dose 90 mg, Day 15 (24 h post last dose)
[6] = multiple-dose 300 mg, Day 15 (24 h post last dose)

For C[C@@]1(c2nc(NC(=O)c3ncc(C(F)(F)F)cc3Cl)ccc2F)CO[C@@](C)(C(F)(F)F)C(N)=N1 [Compound 1, N-(6-((3R,6R)-5-amino-3,6-dimethyl-6-(trifluoromethyl)-3,6-dihydro-2H-1,4-oxazin-3-yl)-5-fluoropyridin-2-yl)-3-chloro-5-(trifluoromethyl)picolinamide], the “Aβ40 change vs vehicle (Triton TX-100 soluble, brain)” value ([1]; 0.03 g/kg vs vehicle) was −4.6%, the “Aβ40 change vs vehicle (Triton TX-100 soluble, brain)” value ([1]; 0.3 g/kg vs vehicle) was −43.7% and the “treatment effects on soluble Aβ species (brain tissue and CSF Aβ40)” value ([1]; high dose) was −43.7 to −77%. The “treatment effects on soluble Aβ species (brain tissue and CSF Aβ40)” value ([1]; low dose) was −4.6 to −20%, the “Aβ40 % change from baseline, Mean (SD)” value ([2]; 10 mg, E4 heterozygotes) was −56 (10) % and the “Aβ40 % change from baseline, Median” value ([2]; 10 mg, E4 heterozygotes) was −53%. For the same compound, the “Aβ40 % change from baseline, Mean (SD)” value ([2]; 10 mg, E4 non-carriers) was −59 (7) %, the “Aβ40 % change from baseline, Median” value ([2]; 10 mg, E4 non-carriers) was −61% and the “Aβ40 % change from baseline, Mean (SD)” value ([2]; 30 mg, E4 non-carriers) was −80 (4) %. The “Aβ40 % change from baseline, Median” value ([2]; 30 mg, E4 non-carriers) was −81%, the “Aβ40 % change from baseline, Mean (SD)” value ([2]; 90 mg, E4 heterozygotes) was −90 (2) % and the “Aβ40 % change from baseline, Median” value ([2]; 90 mg, E4 heterozygotes) was −90%. For the same compound, the “Aβ40 % change from baseline, Mean (SD)” value ([2]; 90 mg, E4 non-carriers) was −89 (2) %, the “Aβ40 % change from baseline, Median” value ([2]; 90 mg, E4 non-carriers) was −90% and the “Aβ40 % change from baseline, Mean (SD)” value ([2]; 300 mg, E4 heterozygotes (n 1)) was −93%. The “Aβ40 % change from baseline, Median” value ([2]; 300 mg, E4 heterozygotes (n 1)) was −93%, the “Aβ40 % change from baseline, Mean (SD)” value ([2]; 300 mg, E4 non-carriers) was −94 (1) % and the “Aβ40 % change from baseline, Median” value ([2]; 300 mg, E4 non-carriers) was −94%. For the same compound, the “lowering of CSF Aβ40 concentrations, up to” value ([2]; multiple dosing) was about 90%, the “lowering of CSF Aβ40 concentrations, up to” value ([2]; single dosing) was “approximately 80%” and the “Aβ40 in CSF percent change from baseline, Mean (SD)” value (“Aβ40 in CSF percent change … (SD)” for short) [2, 3] was −60.1 (9.91) %. The “Aβ40 in CSF percent change from baseline, Median” value [2, 3] was −61.5%, the “Aβ40 in CSF percent change … (SD)” value [2, 4] was −80.0 (3.89) % and the “Aβ40 in CSF percent change from baseline, Median” value [2, 4] was −80.2%. For the same compound, the “Aβ40 in CSF percent change … (SD)” value [2, 5] was −88.2 (3.07) %, the “Aβ40 in CSF percent change from baseline, Median” value [2, 5] was −89.1% and the “Aβ40 in CSF percent change … (SD)” value [2, 6] was −93.6 (0.61) %. For the same compound, the “Aβ40 in CSF percent change from baseline, Median” value [2, 6] was −93.5%, the “Aβ40 in CSF percent change … (SD)” value ([2]; single-dose 10 mg, 12 h) was −11.6 (8.31) % and the “Aβ40 in CSF percent change from baseline, Median” value ([2]; single-dose 10 mg, 12 h) was −12.5%. For the same compound, the “Aβ40 in CSF percent change from baseline, Min-Max” value ([2]; single-dose 10 mg, 12 h) was −21-1%, the “Aβ40 in CSF percent change … (SD)” value ([2]; single-dose 10 mg, 24 h) was −15.0 (10.21) % and the “Aβ40 in CSF percent change from baseline, Median” value ([2]; single-dose 10 mg, 24 h) was −14.3%. For the same compound, the “Aβ40 in CSF percent change from baseline, Min-Max” value ([2]; single-dose 10 mg, 24 h) was −31-−4%, the “Aβ40 in CSF percent change … (SD)” value ([2]; single-dose 10 mg, 34 h) was −9.7 (14.72) % and the “Aβ40 in CSF percent change from baseline, Median” value ([2]; single-dose 10 mg, 34 h) was −12.5%. The “Aβ40 in CSF percent change from baseline, Min-Max” value ([2]; single-dose 10 mg, 34 h) was −25-10%, the “Aβ40 in CSF percent change … (SD)” value ([2]; single-dose 90 mg, 12 h) was −14.2 (35.83) % and the “Aβ40 in CSF percent change from baseline, Median” value ([2]; single-dose 90 mg, 12 h) was −28.0%. The “Aβ40 in CSF percent change from baseline, Min-Max” value ([2]; single-dose 90 mg, 12 h) was −36-58%, the “Aβ40 in CSF percent change … (SD)” value ([2]; single-dose 90 mg, 24 h) was −44.8 (12.48) % and the “Aβ40 in CSF percent change from baseline, Median” value ([2]; single-dose 90 mg, 24 h) was −49.2%. For the same compound, the “Aβ40 in CSF percent change from baseline, Min-Max” value ([2]; single-dose 90 mg, 24 h) was −55-−25%, the “Aβ40 in CSF percent change … (SD)” value ([2]; single-dose 90 mg, 34 h) was −50.0 (8.87) % and the “Aβ40 in CSF percent change from baseline, Median” value ([2]; single-dose 90 mg, 34 h) was −45.4%. The “Aβ40 in CSF percent change from baseline, Min-Max” value ([2]; single-dose 90 mg, 34 h) was −60-−41%, the “Aβ40 in CSF percent change … (SD)” value ([2]; single-dose 300 mg, 12 h) was −35.8 (16.40) % and the “Aβ40 in CSF percent change from baseline, Median” value ([2]; single-dose 300 mg, 12 h) was −44.1%. The “Aβ40 in CSF percent change from baseline, Min-Max” value ([2]; single-dose 300 mg, 12 h) was −54-−13%, the “Aβ40 in CSF percent change … (SD)” value ([2]; single-dose 300 mg, 24 h) was −68.3 (10.65) % and the “Aβ40 in CSF percent change from baseline, Median” value ([2]; single-dose 300 mg, 24 h) was −72.5%. For the same compound, the “Aβ40 in CSF percent change from baseline, Min-Max” value ([2]; single-dose 300 mg, 24 h) was −79-−52%, the “Aβ40 in CSF percent change … (SD)” value ([2]; single-dose 300 mg, 34 h) was −78.3 (4.75) % and the “Aβ40 in CSF percent change from baseline, Median” value ([2]; single-dose 300 mg, 34 h) was −79.3%. For the same compound, the “Aβ40 in CSF percent change from baseline, Min-Max” value ([2]; single-dose 300 mg, 34 h) was −84-−69%, the “Aβ40 in CSF percent change … (SD)” value ([2]; single-dose 750 mg, 12 h) was −36.2 (13.58) % and the “Aβ40 in CSF percent change from baseline, Median” value ([2]; single-dose 750 mg, 12 h) was −38.6%. The “Aβ40 in CSF percent change from baseline, Min-Max” value ([2]; single-dose 750 mg, 12 h) was −53-−10%, the “Aβ40 in CSF percent change … (SD)” value ([2]; single-dose 750 mg, 24 h) was −67.4 (15.54) % and the “Aβ40 in CSF percent change from baseline, Median” value ([2]; single-dose 750 mg, 24 h) was −70.6%. The “Aβ40 in CSF percent change from baseline, Min-Max” value ([2]; single-dose 750 mg, 24 h) was −82-−36%, the “Aβ40 in CSF percent change … (SD)” value ([2]; single-dose 750 mg, 34 h) was −79.1 (8.88) % and the “Aβ40 in CSF percent change from baseline, Median” value ([2]; single-dose 750 mg, 34 h) was −82.3%. The “Aβ40 in CSF percent change from baseline, Min-Max” value ([2]; single-dose 750 mg, 34 h) was −87-−60%.
